US20240197891A1, “PHARMACEUTICAL COMPOSITIONS COMPRISING POH DERIVATIVES” (UNIVERSITY OF SOUTHERN CALIFORNIA, priority 2021, published 2024)
Entries after “also recorded” stand apart in the source; their conditions may differ.

Legend:
[1] = system: subcutaneous U-87 gliomas; experiment: Nude mouse subcutaneous glioma model; assay type: in vivo; conditions: local application via Q-tip, 1 cc/application/day, 8 weeks; 60 days
Description: Inhibition of tumor growth by butyryl-POH was studied in a nude mouse subcutaneous glioma model. Mice were injected with U-87 glioma cells (500,000 cells/injection) and allowed to form a palpable nodule over two weeks. Once palpable nodule was formed, the mice were treated with local application of various compounds as indicated in FIGS. 9A and 9B via a Q-tip (1 cc/application/day) over a period of 8 weeks.

A172 human glioma cells = experiment: MTT cytotoxicity assay, A172 cells; assay type: cell-based; conditions: A-172 cells, 48 hours
Text: (§1) In vitro efficacy of the present composition can be determined using methods well known in the art. For example, the cytotoxicity of the present monoterpene (or sesquiterpene) and/or the therapeutic agents may be studied by MTT [3-(4,5-dimethylthiazol-2-yl)-2,5-diphenyl tetrazolium bromide] cytotoxicity assay. MTT assay is based on the principle of uptake of MTT, a tetrazolium salt, by metabolically active cells where it is metabolized into a blue colored formazan product, which can be read spectrometrically. J. of Immunological Methods 65: 55 63, 1983. The cytotoxicity of the present monoterpene (or sesquiterpene) derivative and/or the therapeutic agents may be studied by colony formation assay. Functional assays for inhibition of VEGF secretion and IL-8 secretion may be performed via ELISA. Cell cycle block by the present monoterpene (or sesquiterpene) derivative and/or the therapeutic agents may be studied by standard propidium iodide (PI) staining and flow cytometry. Invasion inhibition may be studied by Boyden chambers. In this assay a layer of reconstituted basement membrane, Matrigel, is coated onto chemotaxis filters and acts as a barrier to the migration of cells in the Boyden chambers. Only cells with invasive capacity can cross the Matrigel barrier. Other assays include, but are not limited to cell viability assays, apoptosis assays, and morphological assays. […]

LN229 human glioma cells = experiment: cells
Text: (§2) In vitro efficacy of the present composition can be determined using methods well known in the art. For example, the cytotoxicity of the present monoterpene (or sesquiterpene) and/or the therapeutic agents may be studied by MTT [3-(4,5-dimethylthiazol-2-yl)-2,5-diphenyl tetrazolium bromide] cytotoxicity assay. MTT assay is based on the principle of uptake of MTT, a tetrazolium salt, by metabolically active cells where it is metabolized into a blue colored formazan product, which can be read spectrometrically. J. of Immunological Methods 65: 55 63, 1983. The cytotoxicity of the present monoterpene (or sesquiterpene) derivative and/or the therapeutic agents may be studied by colony formation assay. Functional assays for inhibition of VEGF secretion and IL-8 secretion may be performed via ELISA. Cell cycle block by the present monoterpene (or sesquiterpene) derivative and/or the therapeutic agents may be studied by standard propidium iodide (PI) staining and flow cytometry. Invasion inhibition may be studied by Boyden chambers. In this assay a layer of reconstituted basement membrane, Matrigel, is coated onto chemotaxis filters and acts as a barrier to the migration of cells in the Boyden chambers. Only cells with invasive capacity can cross the Matrigel barrier. Other assays include, but are not limited to cell viability assays, apoptosis assays, and morphological assays.
(§3) To compare the cytotoxicity of Rolipram POH Carbamate (POH-Rolipram) (e.g., synthesized by the method in Example 5) with rolipram, […] inducing differentiation and apoptosis in glioma cells, A172, U87, U251 and LN229 human glioma cells were treated with either POH-Rolipram or rolipram for 48 hours.

U87 human glioma cells = experiment: MTT cytotoxicity assay, U87 cells; assay type: cell-based; conditions: U-87 cells, 48 hours
Text: as §1

U251 human glioma cells = experiment: MTT cytotoxicity assay, U251 cells
Text: as §2, §3
(§4) MTT cytotoxicity assays were carried out after cells were treated with the TMZ-POH conjugate. The MTT cytotoxicity assays were carried out as described in Chen T C, et al. Green tea epigallocatechin gallate enhances therapeutic efficacy of temozolomide in orthotopic mouse glioblastoma models. Cancer Lett. 2011 Mar. 28; 302(2):100-8.

[2] = system: A172, U87, U251 and LN229 human glioma cells; experiment: MTT assay, POH-Rolipram versus rolipram across glioma cell types (stated jointly); assay type: cell-based; conditions: each of A172, U87, U251, LN229; 48 hours
Text: as §1

[3] = system: TMZ resistant (U251TR) U251 cells; experiment: Colony forming assay, TMZ resistant U251TR cells; assay type: cell-based, human
Description: (§5) Colony forming assays were carried out after cells were treated with TMZ alone, POH alone, and the TMZ-POH conjugate. […] Cancer Lett. 2011 Mar. 28; 302(2):100-8.

[4] = system: USC-02 glioma cancer stem cells; experiment: MTT cytotoxicity assay, USC-02 glioma cancer stem cells; assay type: cell-based; conditions: USC-02, MTT
Text: (§6) Cancer Lett. 2011 Mar. 28; 302(2):100-8.

normal astrocytes = experiment: MTT cytotoxicity assay, normal astrocytes; conditions: listed as TMZ-POH
Description: as §4

[5] = system: TMZ resistant cells (U251TR); experiment: MTT cytotoxicity assay, U251TR cells
Description: as §4

[6] = system: tumor brain endothelial cells (TuBEC); experiment: MTT cytotoxicity assay, tumor brain endothelial cells; assay type: cell-based
Text: as §6

[7] = system: ER stress (CHOP) in TMZ sensitive and resistant U251 glioma cells; experiment: Western blot of ER stress in U251 glioma cells; assay type: cell-based, human; conditions: 18 hr
Description: Western blots were performed after TMZ sensitive and resistant glioma cells were treated with the TMZ-POH conjugate for 18 hr. […] Activation of the proapoptotic protein CHOP was shown at concentrations as low as 60 uM of TMZ-POH.

[8] = system: brain endothelial cells (BEC); experiment: MTT cytotoxicity assay, brain endothelial cells; assay type: cell-based
Text: as §6

[9] = system: human malignant glioma cells U87, A172 and U251; experiment: MTT cytotoxicity assays on U87, A172 and U251 cells (stated jointly); assay type: cell-based
Description: J. of Immunological Methods 65: 55 63, 1983. […] Invasion inhibition may be studied by Boyden chambers.
Then U87, A172 and U251 cells were treated with dimethyl celecoxib bisPOH carbamate (POH-DMC) (e.g., synthesized by the method in Example 1), and the MTT cytotoxicity assays performed (FIG. 2).
Then TMZ-resistant glioma cell lines U87, A172 and U251 cells were treated with temozolomide POH carbamate (POH-TMZ) (e.g., synthesized by the method in Example 3).

[10] = system: TMZ sensitive (U251) cells; experiment: Colony forming assay, TMZ sensitive U251 cells; assay type: cell-based, human
Description: as §5

[11] = system: USC-04 glioma cancer stem cells; experiment: MTT cytotoxicity assay, USC-04 glioma cancer stem cells; assay type: cell-based; conditions: USC-04, MTT
Text: as §6

C=C(C)C1CC=C(COC(=O)CCC)CC1 (stereo not shown) [Butyryl-POH]
inhibition of tumor growth [1]: greatest inhibition of tumor growth

C=C(C)C1CC=C(COC(=O)N2CC(c3ccc(OC)c(OC4CCCC4)c3)CC2=O)CC1 (stereo not shown) [POH-rolipram, 4-(3-cyclopentyloxy-4-methoxyphenyl)-2-oxo-pyrrolidine-1-carboxylic acid 4-isopropenyl cyclohex-1-enylmethyl ester]
IC50 (A172 human glioma cells): 50 µM | cytotoxicity at 10 uM (LN229 human glioma cells): ~100% | IC50 (LN229 human glioma cells; LN229 cells, MTT, 48 hours): 100 µM | IC50 (U87 human glioma cells): 180 µM | cytotoxicity at 100 uM (U251 human glioma cells): ~100% | IC50 (U251 human glioma cells; U251 cells, MTT, 48 hours): 50 µM | kill rates (MTT) [2]: substantially higher kill rates compared to rolipram alone

C=C(C)C1CC=C(COC(=O)NC(=O)c2ncn3c(=O)n(C)nnc23)CC1 (stereo not shown) [POH-TMZ]
cytotoxicity (colony forming assay) [3]: demonstrated cytotoxicity | IC50 [4]: 60 µM | cytotoxicity (MTT) (normal astrocytes): not towards normal astrocytes; also recorded: did not induce significant cytotoxicity | cytotoxicity (MTT) [5]: demonstrated cytotoxicity | cytotoxicity (MTT) [6]: did not induce significant cytotoxicity | ER stress (ERS) induction ([7]; TMZ sensitive and resistant U251 cells): induces ER stress | lowest concentration showing activation of the proapoptotic protein CHOP ([7]; western blot): 60 µM | cytotoxicity (MTT) ([8]; confluent BEC): did not induce significant cytotoxicity | cytotoxicity (MTT) ([8]; subconfluent BEC, high concentrations): Mild to moderate cytotoxicity | cytotoxicity / kill rates (MTT) [9]: substantially higher kill rates | cytotoxicity (colony forming assay) ([10]; TMZ sensitive U251 cells): demonstrated cytotoxicity | potency in the colony forming assays compared to POH alone ([10]; U251 and U251TR cells): substantially greater potency compared to POH alone | IC50 [11]: 150 µM | cytotoxicity (MTT) (U251 human glioma cells; TMZ sensitive U251 cells, Example 9): demonstrated cytotoxicity
